Experimental data: publication PMC8400542, “Anti-Inflammatory, Antipyretic, and Analgesic Properties of Potamogeton perfoliatus Extract: In Vitro and In Vivo Study” (Molecules, 2021)

How the values were obtained:
[1] = Total antioxidant capacity (TAC) ELISA kit assay; details: mean ± SE
Experimental: The antioxidant potential of the extract was evaluated by determining its TAC using a TAC ELISA kit (MBS726896, my BioSource, Inc., San Diego, CA, USA) in accordance with the manufacturer’s instructions and compared to the standard antioxidant, ascorbic acid as previously described Sobeh et al..

5-lipoxygenase (LOX) = test: Lipoxygenase inhibition, enzyme immunoassay kit; type: biochemical; details: mean ± SE
Experimental: The in vitro enzymatic activities were determined, utilizing enzyme immunoassay kits (Cayman Chemical, Ann Arbor, MI, USA) following the manufacturer’s instructions and the study by Adellall et al..

[2] = test system: carrageenan-induced leukocyte migration in mice; test: Carrageenan-induced leukocyte migration into the peritoneal cavity; type: in vivo, mouse; details: 20 mg/kg, p.o.
Experimental: Three hours later, the mice were euthanized, and each peritoneal cavity was washed with 3 mL of phosphate-buffered saline (PBS) containing 1 mM EDTA. The total leukocyte count was determined in each peritoneal cavity wash using a hemocytometer and presented as number of cells/mL [3].
(§1) Figure 3 (A) Results from P. perfoliatus extract on carrageenan-induced leukocyte migration into the peritoneal cavity in mice (total number × 10^6). […] (B) Results from P. perfoliatus extract on acetic acid-induced vascular permeability. Mice received different treatments 1 h before acetic acid (0.6%, i.p.) and Evans blue dye injections. The amount of dye extravasation into the abdominal cavity was quantified and used as an indicator of inflammation degree. The results are shown as means ± SEM (n = 5–6). * p < 0.05 compared to saline group. ^# p < 0.05 compared to control (carrageenan or acetic acid only treated group).

[3] = test system: acetic acid-induced vascular permeability in mice; test: Acetic acid-induced vascular permeability (Evans blue); type: in vivo, mouse; details: 20 mg/kg, p.o., compared to control mice
Experimental: To study the effect of the extract on the vascular phase of inflammation, acetic acid-induced vascular permeability was performed as described previously by Sobeh et al.. […] One hour later, Evans blue (0.25% solution in normal saline, 0.2 mL) was injected in the tail vein. Acetic acid (0.6% in normal saline, 1 mL/100 g) was then injected after 30 min in the peritoneal cavity of the treated mice. The normal control was injected with normal saline only. Mice were euthanized 30 min later by cervical dislocation, the abdominal cavities were washed with 3 mL saline solution and the collected washings were then centrifuged at 3000 rpm for 10 min. The vascular permeability is proportional to the absorbance of Evans blue dye in the supernatant, which was measured at 610 nm using a plate reader (Biotek, Winooski, VT, USA).
as §1, with “The results are shown as means ± SEM (n = 5–6). * p < 0.05 compared to saline group. ^# p < 0.05 compared to control (carrageenan or acetic acid only treated group).” left out

[4] = test system: acetic acid-induced writhing in mice; test: Acetic acid-induced abdominal writhing; details: 20 mg/kg, p.o.
Experimental: The peripheral analgesic activity of the extract was evaluated by the acetic acid-induced writhing model in mice according to Sobeh et al. [3]. […] The number of writhes, manifested as extension of hind legs, constriction of abdomen, or turning of trunk was evaluated within 25 min. The reduction in the number of writhes as compared to the control group is indicative of the analgesic potential of the extract [3]. The percent inhibition of writhing was calculated using the following formula as previously reported [18]. % Analgesic activity = (mean writhing count (control-treatment)/mean writhing count (control)).
The data results were quantified at one-hour intervals after administration of either the extract (200 and 400 mg/kg, p.o.) or nalbuphine (10 mg/kg, p.o.).

[5] = test system: Brewer's yeast-induced pyrexia in mice; test: Brewer's yeast-induced pyrexia; type: in vivo, mouse; details: 150 mg/kg
Experimental: Pyrexia in mice was induced as previously reported by Liu et al. with minor modifications. The animals’ initial rectum temperature was determined using a lubricated digital thermometer. Suspension of Brewer’s yeast was prepared in normal saline (30%) and injected subcutaneously behind the neck of the animal (1 mL/100 g). After 18 h, rectal temperatures of the mice were determined again (T0). […] Pyretic animals received P. perfoliatus extract (200, 400, and 600 mg/kg, orally), paracetamol (150 mg/kg), or vehicle. Rectal temperatures were measured at 30 min, 1, 2, 3 and 24 h following the different treatments.

[6] = test system: carrageenan-induced leukocyte migration in mice; details: cited from earlier work
[7] = test system: heat-induced nociceptive pain in mice; test: Hot plate test (central antinociception); details: 10 mg/kg
Experimental: To investigate the possible central analgesic activity of the studied extract, the hot plate test was performed according to Sobeh et al. [3]. […] One hour later, each individual mouse was placed on a hot plate preheated at 55 ± 1 °C and observed for any response to the heat-induced nociceptive pain (licking the fore and hind paws, hind paw lifting, or jumping). […] The overall antinociceptive activity of the extract was estimated by calculating the area under the curve (AUC) for the latency responses at the stated time points using GraphPad Prism.
(B) Hot plate response latency (s) assay. (C) AUC of response latency shown in panel (B).

[8] = test system: carrageenan-induced paw edema in rats; details: 20 mg/kg, compared to the control group; cited from earlier work

O=C1O[C@H]([C@@H](O)CO)C(O)=C1O [Ascorbic acid]
TAC [1]: 28.27 ± 1.83 U/L

O=C(O)Cc1ccccc1Nc1c(Cl)cccc1Cl [Diclofenac]
LOX IC50 (5-lipoxygenase (LOX)): 2.83 ± 0.07 µg/mL
decrease of the number of leukocytes [2]: 42%
inhibition of vascular permeability [3]: 67%
reduction of the control writhes [4]: 67%

CC(=O)Nc1ccc(O)cc1 [Paracetamol]
Rectal Temperature Recorded Following Different Treatments ([5]; 0.5 h): 38.14 ± 0.19 °C
Rectal Temperature Recorded Following Different Treatments ([5]; 1 h): 37.50 ± 0.31 °C
Rectal Temperature Recorded Following Different Treatments ([5]; 2 h): 37.12 ± 0.29 °C
Rectal Temperature Recorded Following Different Treatments ([5]; 3 h): 36.96 ± 0.24 °C
Rectal Temperature ([5]; 18 h after yeast injection (T0, before treatment)): 38.60 ± 0.18 °C
Rectal Temperature Recorded Following Different Treatments ([5]; 24 h): 36.50 ± 0.22 °C

O=C(O)/C=C/c1ccc(O)c(O)c1 [caffeic acid]
effect on leukocyte migration [6]: inhibited leukocyte migration

O=C(/C=C/c1ccc(O)c(O)c1)O[C@@H]1C[C@](O)(C(=O)O)C[C@@H](O)[C@H]1O [chlorogenic acid]
effect on leukocyte migration [6]: inhibited leukocyte migration

Oc1ccc2c3c1O[C@H]1[C@@H](O)CC[C@@]4(O)[C@@H](C2)N(CC2CCC2)CC[C@]314 [nalbuphine]
increase in AUC of thermal response latency vs control [7]: 154.7%

O=C(O)c1ccc(O)cc1 [p-Hydroxybenzoic acid]
effect on edema thickness [8]: significantly decreased the edema thickness
